This is an account of results in US7615353B1, “Tivozanib response prediction” (AVEO Pharmaceuticals, Inc., priority 2009, dated 2009).

The target of one assay is VEGF receptor 3 (Homo sapiens, UniProt P35916). The note with it: Nakamura et al., 2006; cited from earlier work.
Assay [1] deals with murine breast tumors (BH archive). Description: tumor response to tivozanib, subcutaneously transplanted murine Her2-driven breast tumors (BH archive) in NCr nude mice. The class given is in vivo, mouse. An excerpt:
A population of more than 100 murine breast tumors (BH archive) was used to identify tumors that are sensitive to tivozanib (responders) and tumors that are resistant to tivozanib (non-responders). The BH archive was established by in vivo propagation and cryopreservation of primary tumor material from more than 100 spontaneous murine breast tumors derived from engineered chimeric mice that develop Her2-dependent, inducible spontaneous breast tumors. The mice were produced essentially as follows.
Tumor cells were isolated by physical disruption of the tumors using cell strainers. Typically 1×10^5 cells were mixed with matrigel (50:50 volume) and injected subcutaneously into female NCr nu/nu mice on upper dorsal region between the shoulder blades. When these tumors grew to approximately 500 mm^3, which typically required 2 to 4 weeks, they were collected for further propagation, drug response testing, and analysis. Analysis included microarray profiling, general histopathology, and IHC (CD31 for tumor vasculature, Ki67 for tumor cell proliferation).
Evaluation of tumor response to tivozanib was performed essentially as follows. Subcutaneously transplanted tumors were established by injecting physically disrupted tumor cells (mixed with Matrigel) into 7 week-old female NCr nude mice. When the tumors reached approximately 200-400 mm^3, 30 tumor-bearing mice were randomized into three groups. Group 1 received vehicle. Group 2 received tivozanib at 5 mg/kg daily by oral gavage. Group 3 received tivozanib at 20 mg/kg daily by oral gavage. Tumors were measured twice per week by a caliper, and tumor volume was calculated. At the end of the treatment, tumors were collected for histopathological analysis and IHC analysis.
Based on tumor growth inhibition and typical histopathological and IHC (CD31) characteristics for angiogenesis inhibition, responders and non-responders were identified. […]

The conditions of assay [2]: 272-patient Phase 2 clinical trial; Bhargava et al., 2009; cited from earlier work.
The test system of a further assay is preclinical models. The note with it: Nakamura et al., 2006; cited from earlier work.

Sequence of VEGF receptor 3 (P35916 25-1363): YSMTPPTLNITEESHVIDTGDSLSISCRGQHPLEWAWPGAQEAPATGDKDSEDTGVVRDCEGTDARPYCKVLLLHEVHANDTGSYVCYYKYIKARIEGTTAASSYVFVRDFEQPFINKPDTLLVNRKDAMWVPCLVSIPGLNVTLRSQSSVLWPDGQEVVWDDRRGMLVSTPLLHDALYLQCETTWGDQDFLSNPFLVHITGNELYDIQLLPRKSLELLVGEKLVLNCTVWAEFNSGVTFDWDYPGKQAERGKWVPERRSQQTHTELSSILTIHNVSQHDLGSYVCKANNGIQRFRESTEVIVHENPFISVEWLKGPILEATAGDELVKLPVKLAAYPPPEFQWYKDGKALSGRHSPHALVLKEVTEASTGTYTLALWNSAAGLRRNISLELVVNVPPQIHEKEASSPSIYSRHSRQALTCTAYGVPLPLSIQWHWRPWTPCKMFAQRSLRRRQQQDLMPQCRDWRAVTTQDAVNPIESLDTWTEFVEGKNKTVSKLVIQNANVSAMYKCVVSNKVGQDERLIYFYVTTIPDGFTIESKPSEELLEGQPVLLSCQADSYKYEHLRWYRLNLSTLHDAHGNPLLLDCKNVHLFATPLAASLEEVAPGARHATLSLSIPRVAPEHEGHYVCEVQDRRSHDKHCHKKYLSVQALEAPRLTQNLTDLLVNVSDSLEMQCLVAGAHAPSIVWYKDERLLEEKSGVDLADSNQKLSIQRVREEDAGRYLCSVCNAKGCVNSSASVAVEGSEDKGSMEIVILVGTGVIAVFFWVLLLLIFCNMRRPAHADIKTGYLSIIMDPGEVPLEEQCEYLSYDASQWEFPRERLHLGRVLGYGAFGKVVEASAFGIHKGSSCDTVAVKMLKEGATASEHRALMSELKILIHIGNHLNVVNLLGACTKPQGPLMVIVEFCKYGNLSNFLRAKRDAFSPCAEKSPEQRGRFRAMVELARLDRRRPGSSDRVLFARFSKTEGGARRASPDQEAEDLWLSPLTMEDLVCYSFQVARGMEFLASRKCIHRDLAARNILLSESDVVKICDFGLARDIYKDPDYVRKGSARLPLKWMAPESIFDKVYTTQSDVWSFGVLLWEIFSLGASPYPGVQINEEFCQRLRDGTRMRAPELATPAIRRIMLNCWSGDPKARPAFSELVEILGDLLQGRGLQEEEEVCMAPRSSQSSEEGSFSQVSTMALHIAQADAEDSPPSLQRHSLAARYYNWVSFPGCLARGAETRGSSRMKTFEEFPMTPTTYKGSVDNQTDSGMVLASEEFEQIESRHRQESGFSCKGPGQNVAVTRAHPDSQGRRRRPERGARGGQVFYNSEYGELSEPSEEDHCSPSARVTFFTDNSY

`COc1cc2nccc(Oc3ccc(NC(=O)Nc4cc(C)on4)c(Cl)c3)c2cc1OC` [Tivozanib, N-{2-chloro-4-[(6,7-dimethoxy-4-quinolyl)oxy]-phenyl}-N′-(5-methyl-3-isoxazolyl)urea]: the inhibitory activity entry at VEGF receptor 3 was “picomolar”. The “variation in response among tumors” value in assay [1] (5 or 20 mg/kg daily by oral gavage, tumor growth inhibition, histopathology, IHC (CD31)) was “significant tumor-to-tumor variation in response”. For the same molecule, the “tumor progression by caliper measurement” value in assay [1] (responder tumors, 5 mg/kg daily by oral gavage) is “no tumor progression”. The “tumor killing (by histology)” value in assay [1] (responder tumors, 5 mg/kg daily by oral gavage, except the peripheries) is reported as “close to complete tumor killing”. In addition, the interim results in assay [2] was “positive interim results”. Also, the antitumor activity result with preclinical models is “exhibits antitumor activity”.
